According to ChEMBL document CHEMBL4715709, “Synthesis and evaluation of anticonvulsant properties of new N-Mannich bases derived from 3-(1-phenylethyl)- and 3-benzyl-pyrrolidine-2,5-dione” (Bioorg Med Chem Lett, 2016):
Calls of active or inactive are those of the source. The rule behind the calls is not given here.

Key:
[1] = Protection index, ratio of TD50 for neurotoxicity in ip dosed mouse to ED50 for anticonvulsant activity in ip dosed mouse by maximal electroshock seizure test; assay type: toxicity, organism-based; details: in vivo, read-out: PI
Mus musculus [2] = experiment: Anticonvulsant activity in ip dosed mouse assessed as protection against ScPTZ-induced epilepsy by subcutaneous pentylenetetrazole test; assay type: functional
[3] = Protection index, ratio of TD50 for neurotoxicity in ip dosed mouse to ED50 for anticonvulsant activity in ip dosed mouse by subcutaneous pentylenetetrazole test; assay type: toxicity, organism-based; details: in vivo, read-out: PI
[4] = Neurotoxicity activity in ip dosed mouse assessed as induction of motor impairment by rotarod test; assay type: toxicity, organism-based; details: in vivo
Mus musculus [5] = experiment: Anticonvulsant activity in ip dosed mouse assessed as protection against tonic-clonic seizures by maximal electroshock seizure test; assay type: functional
Mus musculus [6] = experiment: Anticonvulsant activity in ip dosed mouse assessed as protection against ScPTZ-induced epilepsy measured after 4 hrs by subcutaneous pentylenetetrazole test; assay type: functional
[7] = Neurotoxicity in mouse assessed as induction of motor impairment at 300 mg/kg, ip measured after 4 hrs by rotarod test; assay type: toxicity, organism-based; details: in vivo
Mus musculus [8] = experiment: Anticonvulsant activity in mouse assessed as protection against tonic-clonic seizures at 300 mg/kg, ip measured after 4 hrs by maximal electroshock seizure test; assay type: functional, organism-based
Mus musculus [9] = experiment: Anticonvulsant activity in mouse assessed as protection against ScPTZ-induced epilepsy at 300 mg/kg, ip measured after 4 hrs by subcutaneous pentylenetetrazole test; assay type: functional, organism-based
Mus musculus [10] = experiment: Anticonvulsant activity in mouse assessed as protection against tonic-clonic seizures at 300 mg/kg, ip measured after 0.5 hrs by maximal electroshock seizure test; assay type: functional, organism-based
[11] = Neurotoxicity in ip dosed mouse assessed as minimum dose required for induction of motor impairment measured after 0.5 hrs by rotarod test; assay type: toxicity, organism-based; details: in vivo
[12] = Protection index, ratio of TD50 for neurotoxicity in ip dosed mouse to ED50 for anticonvulsant activity in ip dosed mouse measured after 4 hrs by subcutaneous pentylenetetrazole test; assay type: toxicity, organism-based; details: in vivo, read-out: PI
Mus musculus [13] = experiment: Anticonvulsant activity in ip dosed mouse assessed as minimum dose required for protection against ScPTZ-induced epilepsy measured after 0.5 hrs by subcutaneous pentylenetetrazole test; assay type: functional
Mus musculus [14] = experiment: Anticonvulsant activity in ip dosed mouse assessed as minimum dose required for protection against ScPTZ-induced epilepsy measured after 4 hrs by subcutaneous pentylenetetrazole test; assay type: functional
Mus musculus [15] = experiment: Anticonvulsant activity in ip dosed mouse assessed as minimum dose required for protection against tonic-clonic seizures measured after 0.5 hrs by maximal electroshock seizure test; assay type: functional
Mus musculus [16] = experiment: Anticonvulsant activity in ip dosed mouse assessed as minimum dose required for protection against tonic-clonic seizures measured after 4 hrs by maximal electroshock seizure test; assay type: functional
[17] = Protection index, ratio of TD50 for neurotoxicity in ip dosed mouse to ED50 for anticonvulsant activity in ip dosed mouse measured after 0.5 hrs by 6 Hz limbic seizure test; assay type: toxicity, organism-based; details: in vivo, read-out: PI
Mus musculus [18] = experiment: Anti-convulsant activity in mouse assessed as protection of animals against psychomotor seizures at 100 mg/kg, ip measured after 4 hrs by 6 Hz limbic seizure test; assay type: functional
[19] = Protection index, ratio of TD50 for neurotoxicity in ip dosed mouse to ED50 for anticonvulsant activity in ip dosed mouse measured after 0.5 hrs by subcutaneous pentylenetetrazole test; assay type: toxicity, organism-based; details: in vivo, read-out: PI
Mus musculus [20] = experiment: Anti-convulsant activity in mouse assessed as protection of animals against psychomotor seizures at 100 mg/kg, ip measured after 0.5 hrs by 6 Hz limbic seizure test; assay type: functional
Mus musculus [21] = experiment: Anti-convulsant activity in ip dosed mouse assessed as protection against psychomotor seizures measured after 0.5 hrs by 6 Hz limbic seizure test; assay type: functional
Mus musculus [22] = experiment: Anticonvulsant activity in ip dosed mouse assessed as protection against ScPTZ-induced epilepsy measured after 0.5 hrs by subcutaneous pentylenetetrazole test; assay type: functional
Mus musculus [23] = experiment: Anticonvulsant activity in mouse assessed as protection against ScPTZ-induced epilepsy at 300 mg/kg, ip measured after 0.5 hrs by subcutaneous pentylenetetrazole test; assay type: functional, organism-based
[24] = Neurotoxicity in ip dosed mouse assessed as minimum dose required for induction of motor impairment measured after 4 hrs by rotarod test; assay type: toxicity, organism-based; details: in vivo
Homo sapiens [25] = species on record: Homo sapiens; experiment: Inhibition of Sodium channel site 2 (unknown origin) at 100 uM
Homo sapiens [26] = species on record: Homo sapiens; experiment: Inhibition of L-type calcium channel (unknown origin) at 100 uM
Homo sapiens [27] = species on record: Homo sapiens; experiment: Inhibition of NMDA receptor (unknown origin) at 100 uM
Homo sapiens [28] = species on record: Homo sapiens; experiment: Inhibition of GABAA receptor (unknown origin) at 100 uM
[29] = Neurotoxicity in mouse assessed as induction of motor impairment at 300 mg/kg, ip measured after 0.5 hrs by rotarod test; assay type: toxicity, organism-based; details: in vivo
Mus musculus [30] = experiment: Anti-convulsant activity in ip dosed mouse assessed as protection against psychomotor seizures measured after 0.25 hrs by 6 Hz limbic seizure test; assay type: functional
Mus musculus [31] = experiment: Anticonvulsant activity in ip dosed mouse assessed as protection against ScPTZ-induced epilepsy measured after 0.25 hrs by subcutaneous pentylenetetrazole test; assay type: functional

SMILES | TD50 [4] [mg/kg] | Activity [7] | Activity (Mus musculus [8]) | Activity (Mus musculus [9]) | Activity (Mus musculus [10]) | MTD50 [11] [mg/kg] | MED=>50 (Mus musculus [13]) [mg/kg] | MED=>50 (Mus musculus [14]) [mg/kg] | minimum effective dose (Mus musculus [15]) [mg/kg] | selectivity ratio at 0.5 h [17] | Activity (Mus musculus [18]) [%] | selectivity ratio at 0.5 h [19] | Activity (Mus musculus [20]) [%] | ED50 (Mus musculus [21]) [mg/kg] | ED50 (Mus musculus [22]) [mg/kg] | MTD50 [24] [mg/kg] | further results
O=C1CC(C(c2ccccc2)c2ccccc2)C(=O)N1CN1CCN(c2cccc(C(F)(F)F)c2)CC1 (centres undefined) | > 500 |  |  |  |  |  |  |  |  |  |  |  |  |  |  |  | selectivity ratio [1]: > 4.95; ED50 (Mus musculus [2]): 73 mg/kg; selectivity ratio [3]: > 6.84; ED50 (Mus musculus [5]): 101 mg/kg
COc1ccccc1N1CCN(CN2C(=O)CC(C(C)c3ccccc3)C2=O)CC1 (centres undefined) | 128 | Non-Toxic | inactive | inactive | inactive | 300 | 30 |  |  |  |  |  |  |  |  |  | ED50 (Mus musculus [6]): 48 mg/kg; selectivity ratio at 4 h [12]: 2.66
O=C1CC(Cc2ccccc2)C(=O)N1CN1CCOCC1 (racemic) | 179 | Non-Toxic |  |  |  | 300 | 100 | 100 | 300 | 3.37 | 0 | 2.05 | 100 | 53 | 87 |  | MED=>50 (Mus musculus [16]): 300 mg/kg
O=C1CC(Cc2ccccc2)C(=O)N1CN1CCN(c2ccc(F)cc2)CC1 (racemic) |  |  |  | inactive |  | 300 |  |  | 300 |  |  |  |  |  |  | 300 | Activity (Mus musculus [23]): inactive; MED=>50 (Mus musculus [16]): 300 mg/kg
CC(c1ccccc1)C1CC(=O)N(CN2CCN(C)CC2)C1=O.Cl (racemic) | 229 | Non-Toxic | inactive |  |  | 300 | 30 | 300 | 300 | 6.36 | 0 | 5.87 | 100 | 36 | 39 |  | inhibition (Homo sapiens [25]): < 50%; inhibition (Homo sapiens [26]): < 50%; inhibition (Homo sapiens [27]): < 50%; inhibition (Homo sapiens [28]): < 50%
O=C1CC(Cc2ccccc2)C(=O)N1CN1CCN(c2ccc(Cl)cc2)CC1 (racemic) |  |  | inactive | inactive | inactive |  |  |  |  |  |  |  |  |  |  | 300 | Activity (Mus musculus [23]): inactive; Activity [29]: Non-Toxic
O=C1CC(Cc2ccccc2)C(=O)N1CN1CCN(c2ncccn2)CC1 (racemic) |  |  | inactive |  | inactive | 300 |  | 100 |  |  |  |  |  |  |  | 300 | Activity (Mus musculus [23]): inactive
CN1CCN(CN2C(=O)CC(Cc3ccccc3)C2=O)CC1.Cl (racemic) | 324 | Non-Toxic | inactive |  |  |  | 100 | 300 | 300 | 5 | 0 | 3.41 | 66 | 65 | 95 |  | Activity [29]: Non-Toxic
CC(c1ccccc1)C1CC(=O)N(CN2CCN(CCO)CC2)C1=O.Cl (racemic) | 290 | Non-Toxic | inactive |  |  | 300 | 300 | 300 | 300 | 9.66 | 0 |  | 100 | 30 |  |  | 
CC(c1ccccc1)C1CC(=O)N(CN2CCN(C3CCCCC3)CC2)C1=O (racemic) | 196 | Non-Toxic | inactive | inactive | inactive | 300 | 100 |  |  | 2.61 | 0 | 1.94 | 100 | 75 | 101 |  | 
O=C1CC(Cc2ccccc2)C(=O)N1CN1CCN(c2ccc(Cl)c(Cl)c2)CC1 (racemic) | 246 |  |  |  | inactive |  | 300 | 100 |  |  | 0 |  | 0 |  |  | 300 | ED50 (Mus musculus [6]): 106 mg/kg; Activity [29]: Non-Toxic; MED=>50 (Mus musculus [16]): 300 mg/kg; selectivity ratio at 4 h [12]: 2.32
CCC1(C)CC(=O)NC1=O (centres undefined) [ETHOSUXIMIDE] |  |  |  |  |  |  |  |  |  |  |  |  |  |  |  |  | ED50 (Mus musculus [30]): > 200 mg/kg; ED50 (Mus musculus [31]): 140 mg/kg
CCCC(CCC)C(=O)O [VALPROIC ACID] |  |  |  |  |  |  |  |  |  |  |  |  |  | 131 | 239 |  | 
